# Laboratory results reported in US20250041216A1, “Methotrexate Composition” (Rosemont Pharmaceuticals Ltd., priority 2012, published 2025).
# Experiment: Stability studies of example 1 formulation at different pH and buffer strength, visual precipitate (Table 3)
# Assay type: physicochemical
# Conditions: pH values below 6.0, over time
# Procedure: Batches were prepared at various pHs in the range 5.6-6.0 and were prepared at ½, 1/10th and 1/20th the original buffer strength of example 1 (i.e. the citric acid monohydrate and disodium hydrogen phosphate dihydrate buffer system). The original buffer strength was taken from a citrate-phosphate buffer table (http://microscopy.berkeley.edu/Resources/instruction/buffers.html).
# The stability studies were undertaken using the example 1 formulation but using either a citrate-phosphate buffer system at half the strength (i.e. 43 mmol) or 1/10th of the strength (i.e. 8.7 mmol) compared to that of example 1. The formulations were adjusted to 5 different pH values; 5.6, 5.7, 5.8, 5.9 and 6.0. One set of formulations were stored at 5° C. and one set of formulations were stored at 25° C. for each buffer strength and each pH value for the duration of the study. The study took place over a 6-month time period.
structure (smiles),measurement,value
CN(Cc1cnc2nc(N)nc(N)c2n1)c1ccc(C(=O)N[C@@H](CCC(=O)O)C(=O)O)cc1 [Methotrexate],Precipitation out of solution,precipitate out of solution over time
